pEC50, pIC50: −log10 of the molar value.
Columns and labels:
[1] = test system: LPS-induced TNFα release in d-U937 cells; assay: LPS-induced TNFα release in d-U937 cells; type: cell-based; settings: Homo sapiens, dU937, relative to 10 μg/mL BIRB796, read-out: LPS Induced Release of Cytokine in d-937 Cells TNFα REC50
How it was run: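 PMA-differentiated (100 ng/mL, 48–72 hr) U937 cells pre-incubated with compound 2 hr, then stimulated with LPS (0.1 μg/mL, E. coli O111:B4) for 4 hr. Supernatant TNFα and IL-8 measured by sandwich ELISA; inhibition versus vehicle control, REC50 from concentration-response curve.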

[2] = test system: Poly I:C-induced ICAM-1 expression in BEAS2B cells; assay: Poly I:C-induced ICAM-1 expression in BEAS2B cells; type: cell-based; settings: Homo sapiens, BEAS-2B, read-out: Poly IC induced ICAM1 in BEAS2B IC50
How it was run: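 Cell-based ELISA read at 450 nm minus 655 nm, divided by crystal violet OD595 to normalize for cell number, gave ICAM-1 levels. Readout was taken 18 hr after poly I:C (1 μg/mL, Oligofectamine) transfection of human bronchial BEAS2B cells pretreated 2 hr with test compound.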

[3] = test system: LPS-induced IL-8 release in d-U937 cells; assay: LPS-induced IL-8 release in d-U937 cells; type: cell-based; settings: Homo sapiens, dU937, read-out: LPS Induced Release of Cytokine in d-937 Cells IL-8 IC50
How it was run: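 Human monocytic U937 cells were differentiated to macrophage-type cells with PMA (100 ng/mL) for 48 to 72 hr, pre-treated with test compound for 2 hr, then stimulated 4 hr with E. coli O111:B4 LPS (0.1 μg/mL). Supernatant TNFα and IL-8 were measured by sandwich ELISA; REC50 came from concentration-response curves.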

[4] = target: p38 MAPKα (Homo sapiens (Human), UniProt Q16539); assay: p38 MAPKα enzyme inhibition (FRET, Z-LYTE); type: biochemical
[5] = test system: d-U937 cells; assay: Cell viability: MTT assay; type: cell-based, human; settings: 1 μg/mL
How it was run: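 MTT read-out (1 h, absorbance 550 nm) on d-U937 cells after pre-incubation with 1 or 10 μg/mL compound under two regimes: 4 h, 5% FCS, or 24 h, 10% FCS RPMI1640. Values are percent loss of viability relative to vehicle (0.5% DMSO), so increases are reported as negative.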

[6] = target: cSrc (Homo sapiens (Human), UniProt P12931); assay: c-Src enzyme inhibition (FRET, Z-LYTE); type: biochemical
How it was run: (§1)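 Z-LYTE FRET kinase assay: enzyme (3000 or 2000 ng/mL stock, respectively) preincubated 2 h at RT with compound (4–0.004 μg/mL stocks), then FRET peptide plus ATP (800 μM stock for c-Src, 60 μM for Syk) added for 1 h. Protease development 1 h; phosphorylation from coumarin/fluorescein emission ratio.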

[7] = target: GSK3α (Homo sapiens (Human), UniProt P49840); assay: GSK 3α enzyme inhibition (FRET, Z-LYTE); type: biochemical
How it was run: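 Phosphorylation was read as the donor (coumarin) to acceptor (fluorescein) ratio after a 1 hr protease step destroying non-phosphorylated peptide. Before this, compound (4–0.004 μg/mL stocks) sat 2 hr at RT with GSK3α (500 ng/mL stock), followed by 1 hr kinase reaction with 8 μM peptide and 40 μM ATP stocks.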

[8] = target: Syk (Homo sapiens (Human), UniProt P43405); assay: Syk enzyme inhibition (FRET, Z-LYTE); type: biochemical
How it was run: as §1

Sequence of cSrc (P12931 whole entry, looked up): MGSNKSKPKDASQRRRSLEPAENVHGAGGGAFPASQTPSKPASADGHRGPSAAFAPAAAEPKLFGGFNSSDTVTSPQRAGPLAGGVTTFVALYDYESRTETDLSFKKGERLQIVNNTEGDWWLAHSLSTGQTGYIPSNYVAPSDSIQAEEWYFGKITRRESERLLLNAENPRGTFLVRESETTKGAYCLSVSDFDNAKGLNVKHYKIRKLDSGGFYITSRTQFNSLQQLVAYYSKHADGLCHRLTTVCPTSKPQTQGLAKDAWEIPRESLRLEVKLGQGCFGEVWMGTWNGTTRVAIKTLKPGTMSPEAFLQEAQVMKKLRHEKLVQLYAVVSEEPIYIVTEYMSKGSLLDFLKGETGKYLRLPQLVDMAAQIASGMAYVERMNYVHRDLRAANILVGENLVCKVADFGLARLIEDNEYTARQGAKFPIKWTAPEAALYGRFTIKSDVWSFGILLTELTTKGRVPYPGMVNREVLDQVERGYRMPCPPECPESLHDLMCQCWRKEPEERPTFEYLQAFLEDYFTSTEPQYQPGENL
Sequence of p38 MAPKα (Q16539 whole entry): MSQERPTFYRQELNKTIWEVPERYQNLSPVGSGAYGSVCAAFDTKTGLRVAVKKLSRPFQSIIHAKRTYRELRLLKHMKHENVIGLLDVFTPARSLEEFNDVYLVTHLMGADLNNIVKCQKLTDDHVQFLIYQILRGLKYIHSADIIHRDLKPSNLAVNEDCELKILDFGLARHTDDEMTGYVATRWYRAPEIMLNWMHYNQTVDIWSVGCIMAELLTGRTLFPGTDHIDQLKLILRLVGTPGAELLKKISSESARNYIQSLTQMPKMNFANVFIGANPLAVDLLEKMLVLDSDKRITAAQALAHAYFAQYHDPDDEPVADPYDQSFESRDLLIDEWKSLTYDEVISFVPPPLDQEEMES
Sequence of GSK3α (P49840 whole entry): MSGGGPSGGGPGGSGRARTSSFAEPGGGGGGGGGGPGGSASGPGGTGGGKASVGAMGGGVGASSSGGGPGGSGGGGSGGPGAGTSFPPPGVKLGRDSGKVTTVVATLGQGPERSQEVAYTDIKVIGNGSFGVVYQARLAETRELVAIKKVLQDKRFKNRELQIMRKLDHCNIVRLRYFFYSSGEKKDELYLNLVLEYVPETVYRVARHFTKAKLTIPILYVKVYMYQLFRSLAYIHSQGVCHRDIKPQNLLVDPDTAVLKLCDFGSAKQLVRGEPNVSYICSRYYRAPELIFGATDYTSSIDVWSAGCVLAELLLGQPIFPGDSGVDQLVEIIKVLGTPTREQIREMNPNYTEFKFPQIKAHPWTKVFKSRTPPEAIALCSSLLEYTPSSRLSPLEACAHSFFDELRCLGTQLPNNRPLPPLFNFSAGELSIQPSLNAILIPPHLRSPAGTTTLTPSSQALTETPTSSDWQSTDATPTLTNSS

SMILES | pEC50 [1] | pIC50 [3] | pIC50 [4] | pIC50 [6] | pIC50 [7] | pIC50 [8] | pIC50 [2] | MTT Assay Cell viability at time point in d-U937 cells 4 h [5] | MTT Assay Cell viability at time point in d-U937 cells 24 h [5]
CC(C)(C)c1cc(NC(=O)Nc2ccc(Oc3ccnc(Nc4ccc5c(c4)OCO5)n3)c3ccccc23)n(-c2ccc(OCCN3CCOCC3)cc2)n1 [Example 65, 1-(4-((2-(benzo[d][1,3]dioxol-5-ylamino)pyrimidin-4-yl)oxy)naphthalen-1-yl)-3-(3-(tert-butyl)-1-(4-(2-morpholinoethoxy)phenyl)-1H-pyrazol-5-yl)urea] | 8.28 | 7.68 | 6.62 | 7.64 | 5.55 | 6.85 | 8.17 | −ve (−ve and +ve indicate that the value is below and above respectively, the no significant effect threshold, defined as 30% inhibition at 1 μg/mL at the time point indicated.) | −ve (−ve and +ve indicate that the value is below and above respectively, the no significant effect threshold, defined as 30% inhibition at 1 μg/mL at the time point indicated.)
CC(C)(C)c1cc(NC(=O)Nc2ccc(Oc3ccnc(Nc4ccc5c(cnn5CCN5CCOCC5)c4)n3)c3ccccc23)n(-c2ccc(OCCN3CCOCC3)nc2)n1 [Example 92, 1-(3-(tert-butyl)-1-(6-(2-morpholinoethoxy)pyridin-3-yl)-1H-pyrazol-5-yl)-3-(4-((2-((1-(2-morpholinoethyl)-1H-indazol-5-yl)amino)pyrimidin-4-yl)oxy)naphthalen-1-yl)urea] | 8.82 | 7.94 | 8.30 | > 9.00 | 6.24 | > 9.00 | 8.28 | −ve (−ve and +ve indicate that the value is below and above respectively, the no significant effect threshold, defined as 30% inhibition at 1 μg/mL at the time point indicated.) | −ve (−ve and +ve indicate that the value is below and above respectively, the no significant effect threshold, defined as 30% inhibition at 1 μg/mL at the time point indicated.)
CC(C)(C)c1cc(NC(=O)Nc2ccc(Oc3ccnc(Nc4ccc5scnc5c4)n3)c3ccccc23)n(-c2ccc(OCCN3CCOCC3)cc2)n1 [Example 79, 1-(4-((2-(benzo[d]thiazol-5-ylamino)pyrimidin-4-yl)oxy)naphthalen-1-yl)-3-(3-(tert-butyl)-1-(4-(2-morpholinoethoxy)phenyl)-1H-pyrazol-5-yl)urea] | 7.98 | 7.91 | 6.83 | 8.10 | 6.14 | 7.44 | 8.15 | −ve (−ve and +ve indicate that the value is below and above respectively, the no significant effect threshold, defined as 30% inhibition at 1 μg/mL at the time point indicated.) | −ve (−ve and +ve indicate that the value is below and above respectively, the no significant effect threshold, defined as 30% inhibition at 1 μg/mL at the time point indicated.)
Cc1ccc(-n2nc(C(C)(C)C)cc2NC(=O)Nc2ccc(Oc3ccnc(Nc4cccc5cn[nH]c45)n3)c3ccccc23)cc1 [Example 25] | 9.10 | 8.77 | 6.28 | 7.34 | < 4.80 | 6.12 | 7.85 | −ve (−ve and +ve indicate that the value is below and above respectively, the no significant effect threshold, defined as 30% inhibition at 1 μg/mL at the time point indicated.) | −ve (−ve and +ve indicate that the value is below and above respectively, the no significant effect threshold, defined as 30% inhibition at 1 μg/mL at the time point indicated.)

More lines, in order of rising pEC50 [1], values ahead:

pEC50 [1] | pIC50 [3] | pIC50 [4] | pIC50 [6] | pIC50 [7] | pIC50 [8] | SMILES | pIC50 [2] | MTT Assay Cell viability at time point in d-U937 cells 4 h [5] | MTT Assay Cell viability at time point in d-U937 cells 24 h [5]
6.83 | 6.66 | > 8.82 | 8.52 | 6.56 | 7.92 | CC(C)c1cc(NC(=O)Nc2ccc(Oc3cc(Nc4ccc5[nH]ncc5c4)ncn3)c3ccccc23)n(-c2ccc(=O)n(CCO)c2)n1 [Example 84, 1-(4-((6-((1H-indazol-5-yl)amino)pyrimidin-4-yl)oxy)naphthalen-1-yl)-3-(1-(1-(2-hydroxyethyl)-6-oxo-1,6-dihydropyridin-3-yl)-3-isopropyl-1H-pyrazol-5-yl)urea] | < 6.82 | −ve (−ve and +ve indicate that the value is below and above respectively, the no significant effect threshold, defined as 30% inhibition at 1 μg/mL at the time point indicated.) | −ve (−ve and +ve indicate that the value is below and above respectively, the no significant effect threshold, defined as 30% inhibition at 1 μg/mL at the time point indicated.)
7.71 | 7.26 | 8.10 | > 8.70 | 5.60 | 7.82 | CC(C)c1cc(NC(=O)Nc2ccc(Oc3ccnc(Nc4ccc5[nH]ncc5c4)n3)c3ccccc23)n(-c2ccc(=O)n(CCO)c2)n1 [Example 85, 1-(4-((2-((1H-indazol-5-yl)amino)pyrimidin-4-yl)oxy)naphthalen-1-yl)-3-(1-(1-(2-hydroxyethyl)-6-oxo-1,6-dihydropyridin-3-yl)-3-isopropyl-1H-pyrazol-5-yl)urea] | 7.15 | −ve (−ve and +ve indicate that the value is below and above respectively, the no significant effect threshold, defined as 30% inhibition at 1 μg/mL at the time point indicated.) | −ve (−ve and +ve indicate that the value is below and above respectively, the no significant effect threshold, defined as 30% inhibition at 1 μg/mL at the time point indicated.)
8.77 | 8.66 | 6.73 | 7.68 | < 5.79 | 7.30 | Cc1ccc(-n2nc(C(C)(C)C)cc2NC(=O)Nc2ccc(Oc3ccnc(Nc4ccc5[nH]ccc5c4)n3)c3ccccc23)cc1 [Example 1, 1-(4-((2-((1H-Indol-5-yl)amino)pyrimidin-4-yl)oxy)naphthalen-1-yl)-3-(3-(tert-butyl)-1-(p-tolyl)-1H-pyrazol-5-yl)urea] | 8.33 | −ve (−ve and +ve indicate that the value is below and above respectively, the no significant effect threshold, defined as 30% inhibition at 1 μg/mL at the time point indicated.) | −ve (−ve and +ve indicate that the value is below and above respectively, the no significant effect threshold, defined as 30% inhibition at 1 μg/mL at the time point indicated.)
8.82 | 9.52 | 8.30 | > 9.00 | 5.52 | > 9.00 | CC(C)(C)c1cc(NC(=O)Nc2ccc(Oc3ccnc(Nc4ccc5[nH]ncc5c4)c3)c3ccccc23)n(-c2ccc(OCCN3CCOCC3)cc2)n1 [Example 67] | 8.60 | −ve (−ve and +ve indicate that the value is below and above respectively, the no significant effect threshold, defined as 30% inhibition at 1 μg/mL at the time point indicated.) | −ve (−ve and +ve indicate that the value is below and above respectively, the no significant effect threshold, defined as 30% inhibition at 1 μg/mL at the time point indicated.)
8.85 | 8.80 | 7.18 | 8.30 | 6.19 | 7.85 | CC(C)(C)c1cc(NC(=O)Nc2ccc(Oc3ccnc(Nc4ccc5[nH]nnc5c4)n3)c3ccccc23)n(-c2ccc(OCCN3CCOCC3)cc2)n1 [Example 81, 1-(4-((2-((1H-benzo[d][1,2,3]triazol-5-yl)amino)pyrimidin-4-yl)oxy)naphthalen-1-yl)-3-(3-(tert-butyl)-1-(4-(2-morpholinoethoxy)phenyl)-1H-pyrazol-5-yl)urea] | 8.00 | −ve (−ve and +ve indicate that the value is below and above respectively, the no significant effect threshold, defined as 30% inhibition at 1 μg/mL at the time point indicated.) | −ve (−ve and +ve indicate that the value is below and above respectively, the no significant effect threshold, defined as 30% inhibition at 1 μg/mL at the time point indicated.)

Source: patent US9249125B2, “Pyrazole derivatives as p38 MAP inhibitors” (RESPIVERT LIMITED, priority 2012, dated 2016)
